pEC50: −log10 of the molar value.
Tests used:
[1] = target: T1, α1A-AR(V185A, A189S, M292L) (Homo sapiens, UniProt P35348, V185A/A189S/M292L)
T1 construct: gene ADRA1A

[2] = target: T2, α1B-AR(A204V, S208A, L314M) (Homo sapiens, UniProt P35368, A204V/L314M/S208A); assay: Ca2+ imaging (GCaMP6f) in transfected HEK293T cells; assay type: cell-based
T2 construct: gene ADRA1B
T2 sequence (P35368 1-520 A204V/S208A/L314M): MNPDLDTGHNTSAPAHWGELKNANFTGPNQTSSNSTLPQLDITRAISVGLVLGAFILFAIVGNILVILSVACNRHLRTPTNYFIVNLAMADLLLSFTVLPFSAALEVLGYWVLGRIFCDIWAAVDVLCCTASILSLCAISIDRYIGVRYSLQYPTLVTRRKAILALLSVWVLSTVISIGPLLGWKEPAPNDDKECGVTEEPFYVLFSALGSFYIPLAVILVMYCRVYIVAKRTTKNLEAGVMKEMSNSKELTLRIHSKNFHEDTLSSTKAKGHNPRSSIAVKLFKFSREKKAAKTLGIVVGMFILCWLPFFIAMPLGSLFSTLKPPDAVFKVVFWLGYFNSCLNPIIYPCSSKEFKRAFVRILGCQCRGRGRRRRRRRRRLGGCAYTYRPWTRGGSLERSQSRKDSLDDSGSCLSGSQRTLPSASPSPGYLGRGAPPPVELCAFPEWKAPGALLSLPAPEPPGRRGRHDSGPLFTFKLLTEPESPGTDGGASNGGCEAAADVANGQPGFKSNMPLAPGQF

T1 sequence (P35348 whole entry V185A/A189S/M292L): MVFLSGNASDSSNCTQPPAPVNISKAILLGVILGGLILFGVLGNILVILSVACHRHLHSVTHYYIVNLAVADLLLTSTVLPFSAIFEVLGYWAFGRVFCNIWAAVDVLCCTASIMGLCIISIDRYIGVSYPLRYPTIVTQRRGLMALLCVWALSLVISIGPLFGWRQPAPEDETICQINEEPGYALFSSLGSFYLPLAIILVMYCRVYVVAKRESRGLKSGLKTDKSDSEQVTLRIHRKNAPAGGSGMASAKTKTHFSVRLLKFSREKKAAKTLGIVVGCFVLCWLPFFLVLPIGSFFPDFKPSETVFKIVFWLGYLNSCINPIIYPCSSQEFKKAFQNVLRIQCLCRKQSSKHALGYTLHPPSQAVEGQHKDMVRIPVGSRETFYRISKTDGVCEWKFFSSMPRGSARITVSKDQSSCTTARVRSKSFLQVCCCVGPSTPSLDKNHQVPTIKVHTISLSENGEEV

| SMILES | Ca2+ imaging (GCaMP6f) in transfected HEK293T cells, saturating concentration [1] | pEC50 [2] |
| --- | --- | --- |
| CNC[C@H](O)c1ccc(O)c(O)c1 [epinephrine] | This triple mutant was still functional in response to epinephrine | – |
| CS(=O)(=O)Nc1c(O)ccc2c1CCCC2C1=NCCN1 (centres unmarked) [A61603] | – | ~8.00 |
